Consider eleven molecules from US5691155A, “Nucleotide sequences encoding the murine β3-adrenergic receptor and their applications” (priority 1991, dated 1997).

As usually defined, the Ki is the equilibrium dissociation constant of an inhibitor or competing ligand from its target. A low value points to a stronger hold on the target.

“Also recorded” adds a separate entry of the source. Read-outs that look alike come from different tables or passages of the source.

Test [1] has as its target T1, murine RA-β3 (Mus musculus, UniProt P25962).
T1 construct: expressed in transfected cells
As to the kind of experiment: cAMP accumulation in CHO-Muβ3 cells (agonists). In kind it is cell-based. To be noted: for A.I. (% IPR), intrinsic activity: % of maximum effect of (-)-isoproterenol; for maximum stimulation of cAMP accumulation: % of that for (-)-isoproterenol; for activation of receptor by β1 and β2 antagonists (in words): murine RA-β3; for agonist type (in words): murine RA-β3, CHO-Muβ3. As to the method: (§1) a. Test for cAMP Accumulation
(§2) preconfluent cells such as those described in Example 5 (5×10^5) are incubated at 37° C. for 20 minutes in 0.5 ml of HANKS buffer containing 20 mM HEPES (pH 7.4), 1 mM ascorbic acid, 1 mM isobutylmethylxanthine and various concentrations of agonist.
(§3) After boiling for 5 min and centrifugation (4000 r.p.m., 10 min, 4° C.), the quantity of cAMP produced is determined using the Amersham cAMP kit.
To determine the pharmacological profile of murine RA-β3, the coding region of its gene was inserted into an expression vector like that described in Example 5.
(§4) The Kact values correspond to the agonist concentration giving 50% of the maximum stimulation.
In general terms: Changes in cAMP serve as a functional read-out for many G protein-coupled receptors.

The next test has as its system obese rat cells. To be noted: cited from earlier work.
For test [2], the target named is T2, human RA-β3 (Homo sapiens, UniProt P13945).
T2 construct: expressed in transfected cells; host or cells: CHO (Chinese Hamster Ovary), CHO-Huβ3
As to the kind of experiment: cAMP accumulation in CHO-Huβ3 cells (agonists). Type of test: cell-based. Conditions: for EC50: CHO-Huβ3, agonist concentration giving 50% of the maximum stimulation, read-out: Kact; for activation of receptor by β1 and β2 antagonists (in words): human RA-β3. As to the method:
In order to be able to directly compare the properties of the murine and human β3-AR receptors, it was decided to express the mouse β3 gene in the CHO (Chinese Hamster Ovary) cell line which has already been used to analyse the human β3-AR receptor (see French Patent Application No. 89 00918).
as §1, §2, §3, §4

In the next test the test system is RA-β3. To be noted: cited from earlier work.
Test [3] has as its target T1, murine RA-β3. The experiment in a line: Inhibition of (-)-isoproterenol-induced cAMP accumulation in CHO-Muβ3 cells (antagonists). In kind it is cell-based. To be noted: for concentration required to inhibit isoproterenol-induced cAMP accumulation (in words): CHO-Muβ3, 5 nM (-)-isoproterenol; for inhibition of isoproterenol-induced accumulation of cAMP (in words): murine RA-β3.

Test [4] has as its target T2, human RA-β3. As to the kind of experiment: Inhibition of isoproterenol-induced cAMP accumulation in CHO-Huβ3 cells (antagonists). In kind it is cell-based.
The target in test [5] is T1, murine RA-β3. As to the kind of experiment: Binding of [^125 I]ICYP to saturation, intact CHO-Muβ3 cells. To be noted: saturation/Scatchard, mean±SEM, n=3, read-out: dissociation constant. Here is the method:
b. Test for the Binding of ICYP
preconfluent cells such as those described in Example 5 (10^5) are incubated for 1 hour at 37° C. in a HANKS buffer containing 20 mM HEPES (pH 7.4), 1 mM ascorbic acid, 2 μM desipramine, 0.05% bovine serum albumin and 70-7000 pM (-)-[^125 I]ICYP (2000 Ci/mmol, Amersham).
The incubations are stopped by dilution in cold PBS buffer and the bound ligand is separated from free [^125 I]ICYP by filtration (Whatman GF/C filters impregnated with 0.3% polyethyleneimine).
The filters are washed 3 times with cold PBS buffer and the radioactivity is measured.

The mark [6] stands for this setting: CHO-Muβ3, agonist concentration giving 50% of the maximum stimulation, read-out: Kact.

T2 sequence (P13945 1-402): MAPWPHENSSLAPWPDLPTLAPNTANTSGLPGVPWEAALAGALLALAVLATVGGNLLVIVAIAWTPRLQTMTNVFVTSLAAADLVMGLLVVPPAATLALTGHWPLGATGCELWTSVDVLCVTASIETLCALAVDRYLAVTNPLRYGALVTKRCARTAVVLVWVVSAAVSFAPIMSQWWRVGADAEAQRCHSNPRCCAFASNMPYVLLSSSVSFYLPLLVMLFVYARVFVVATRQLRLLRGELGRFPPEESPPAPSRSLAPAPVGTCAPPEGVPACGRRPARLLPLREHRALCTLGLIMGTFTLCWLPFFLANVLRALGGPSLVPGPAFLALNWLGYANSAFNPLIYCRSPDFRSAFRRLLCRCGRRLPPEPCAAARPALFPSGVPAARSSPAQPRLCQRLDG
T1 sequence (P25962 1-388): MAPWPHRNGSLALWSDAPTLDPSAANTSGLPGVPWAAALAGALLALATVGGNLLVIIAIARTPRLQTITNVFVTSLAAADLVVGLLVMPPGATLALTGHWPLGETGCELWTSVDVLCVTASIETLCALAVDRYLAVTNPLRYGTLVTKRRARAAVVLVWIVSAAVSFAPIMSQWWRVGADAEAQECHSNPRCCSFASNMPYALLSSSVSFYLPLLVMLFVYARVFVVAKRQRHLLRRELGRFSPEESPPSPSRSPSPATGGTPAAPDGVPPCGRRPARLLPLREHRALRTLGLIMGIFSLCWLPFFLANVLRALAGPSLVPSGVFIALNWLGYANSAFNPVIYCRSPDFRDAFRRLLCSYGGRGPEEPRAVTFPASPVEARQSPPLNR

The molecule `C[C@H](Cc1ccc(OCC(=O)O)cc1)NC[C@H](O)c1cccc(Cl)c1` (relative stereo) [BRL 37344] gave an EC50 on murine RA-β3 [1] of 0.0004 ± 0.0001 µM. Moreover, at murine RA-β3 [1] (CHO-Muβ3), the “stimulation of cAMP accumulation (in words)” value is “potent agonist effect” and the “A.I. (% IPR), intrinsic activity” value amounted to 107.4 ± 8.1%. On murine RA-β3 [1] (murine vs human RA-β3), the “agonist potency in mice compared with human (in words)” value is recorded as “increased potency”. In addition, the “stimulation of cAMP accumulation, of lipolysis and of thermogenesis (in words)” value in the test with obese rat cells is “effectiveness in the stimulation of cAMP accumulation, of lipolysis and of thermogenesis”.

Take `CNCC(O)c1ccc(O)c(O)c1` (single isomer, unassigned; (-)) [(-)-adrenalin]: on murine RA-β3 [1] (CHO-Muβ3), the “stimulation of cAMP accumulation (in words)” value is on record as “accumulation of cAMP is stimulated” and the “A.I. (% IPR), intrinsic activity” value came out at 90.6 ± 2.9%. Besides, the EC50 at murine RA-β3 [1] (setting [6]) worked out at 0.023 ± 0.0003 µM. Also, the EC50 at human RA-β3 [2] stood at 0.0492 ± 0.0053 µM.

With `CC(C)NCC(O)c1ccc(O)c(O)c1` (single isomer, unassigned; (-)) [(-)-isoproterenol], the “maximum concentration of cAMP induced by isoproterenol” value on murine RA-β3 [1] was found to be 500 pmol per million cells.

For the molecule `NC[C@H](O)c1ccc(O)c(O)c1` [(-)-noradrenaline], the EC50 at murine RA-β3 [1] is 0.0129 ± 0.0042 µM. For the same molecule, the “stimulation of cAMP accumulation (in words)” value on murine RA-β3 [1] (CHO-Muβ3) is on record as “accumulation of cAMP is stimulated”. In addition, the Emax on murine RA-β3 [1] (read-out: A.I. (% IPR), intrinsic activity) was 106 ± 5.6%.

Consider `CC(C)(C)NCC(O)COc1cccc2[nH]c(=O)[nH]c12` (stereo not shown) [CGP 12177A], for which, at murine RA-β3 [1] (CHO-Muβ3), the “maximum stimulation of cAMP accumulation” value worked out at 77% and the “A.I. (% IPR), intrinsic activity” value was 74.9 ± 7.9%. In addition, on murine RA-β3 [1], the “activation of receptor by β1 and β2 antagonists (in words)” value (shortened to “activation of receptor”) is listed as “can be activated”; the “agonist type (in words)” value is listed as “behave like partial agonists”. On human RA-β3 [2], the EC50 was found to be 0.139 ± 0.0443 µM; the “activation of receptor” value was “can be activated”. The “lipolysis and adenylate cyclase activity (in words)” value with RA-β3 is “stimulates lipolysis and adenylate cyclase activity”.

On to `Cn1cc(C(F)(F)F)nc1-c1ccc(OCC(O)CNCCOc2ccc(O)c(C(N)=O)c2)cc1` (stereo not shown) [CGP 20712A], for which, at murine RA-β3 [3], the Ki is 6.42 ± 0.584 µM, the “concentration required to inhibit isoproterenol-induced cAMP accumulation (in words)” value is on record as “micromolar concentrations are required; also recorded: micromolar amounts” and the “inhibition of isoproterenol-induced accumulation of cAMP (in words)” value (“inhibition” for short) was “weak inhibitors”. For the same molecule, at human RA-β3 [4], the “inhibition” value is on record as “weak inhibitors”.

For `Cc1ccc(OCC(O)C(C)NC(C)C)c2c1CCC2` (stereo not shown) [ICI 118551], at murine RA-β3 [3], the Ki came to 4.97 ± 0.137 µM, the “concentration required to inhibit isoproterenol-induced cAMP accumulation (in words)” value is recorded as “micromolar concentrations are required; also recorded: micromolar amounts” and the “inhibition” value is on record as “weak inhibitors”. Besides, the “inhibition” value against human RA-β3 [4] is listed as “weak inhibitors”.

Turning to `CC(C)(C)NC[C@H](O)COc1cccc2[nH]c(C#N)c([125I])c12` [ICYP, [^125 I]iodocyanopindolol], the Kd on murine RA-β3 [5] came out at 0.00088 ± 8.8e-05 µM.

As for `CC(C)NCC(O)COc1cccc2ccccc12` (stereo not shown) [Propranolol], the “inhibition” value on human RA-β3 [4] is on record as “weak inhibitors”.

Regarding `C=CCOc1ccccc1OCC(O)CNC(C)C` (stereo not shown) [oxprenolol], at murine RA-β3 [1] (CHO-Muβ3), the “maximum stimulation of cAMP accumulation” value is 45% and the “A.I. (% IPR), intrinsic activity” value is 43.8 ± 6.1%. Also, the EC50 at murine RA-β3 [1] (setting [6]) stood at 0.535 ± 0.0793 µM. In addition, at murine RA-β3 [1], the “activation of receptor” value is listed as “can be activated”; the “agonist type (in words)” value is given as “behave like partial agonists”. Further, on human RA-β3 [2], the EC50 was determined as 0.0766 ± 0.0126 µM; the “activation of receptor” value was “can be activated”.

Take `CC(C)NCC(O)COc1cccc2[nH]ccc12` (stereo not shown) [pindolol]: at murine RA-β3 [1] (CHO-Muβ3), the “maximum stimulation of cAMP accumulation” value is recorded as 36% and the “A.I. (% IPR), intrinsic activity” value was 35.1 ± 3.1%. At murine RA-β3 [1] (setting [6]), the EC50 was 0.999 ± 0.197 µM. For the same molecule, on murine RA-β3 [1], the “activation of receptor” value is recorded as “can be activated”; the “agonist type (in words)” value is recorded as “behave like partial agonists”. On human RA-β3 [2], the “activation of receptor” value was “can be activated”.
